{"source": "paper PMC9249674", "about": "“A small-molecule Skp1 inhibitor elicits cell death by p53-dependent mechanism” (iScience, 2022)", "key": {"[1]": {"tested_on": "A549 cells", "experiment": "Flow cytometric analysis of cell cycle", "assay_type": "cell-based, human", "conditions": "0.5 μM, asynchronized and synchronized A549 cells", "description": "Both asynchronous and synchronous cells were analyzed by flow cytometry with DNA staining to determine the total amount of DNA. For asynchronous analysis, A549 cells were seeded into six-well plates at a density of 6 × 10^5 cells/well. After 14 to 16 hrs of seeding, the cells were treated with indicated concentrations of Z0933M for 24 hrs. Then, the cells were harvested, washed twice with cold PBS, and fixed in cold 70% ethanol on ice (around 4°C) for 4 hrs. Next, the cells were washed twice with cold PBS, resuspended with cold PBS containing […] RnaseA (Sigma), and incubated for 30 min at 37°C. Then, PBS containing […] propidium iodide (PI) (Sigma) was directly added, the cells were mixed gently, and incubated for 5–10 min at room temperature in the dark. Finally, the cell-cycle phase distribution was analyzed in three different experiments using flow cytometry (BD Biosciences, San Diego, CA, USA). At least 10,000 events/sample were acquired. Assays were conducted three times independently. The data was analyzed by FlowJo V10 software. For synchronous cell cycle analysis, cells were synchronized to G1/S boundary by a double-thymidine blockade ([Liu et al., 2015]), and then exposed to Z0933M for time-dependent or dose-dependent analysis. […] Cell cycle distribution was analyzed by flow cytometry (BD Biosciences, San Diego, CA, USA) and FlowJo V10 software."}, "[2]": {"biological_target": "T1, Skp1^F139A (Homo sapiens, UniProt P63208, F139A)", "T1 construct": "His6; made in house; host or cells: Escherichia coli BL21 (DE3)", "T1 sequence (P63208 whole entry F139A)": "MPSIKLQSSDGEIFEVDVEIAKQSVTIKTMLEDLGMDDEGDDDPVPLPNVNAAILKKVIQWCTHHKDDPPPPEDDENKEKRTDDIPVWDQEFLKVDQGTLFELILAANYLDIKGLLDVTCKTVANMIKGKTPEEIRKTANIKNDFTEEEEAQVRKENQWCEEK", "experiment": "LC-MS/MS analysis of in vitro binding", "conditions": "Skp1^F139A mutant, overnight incubation"}, "[3]": {"biological_target": "T2, Skp1^WT (Homo sapiens, UniProt P63208)", "T2 construct": "recombinantly purify intact (Skp1^WT) and truncate (ΔSkp1^1−140; lacking H8-helix) forms of Skp1; His6; made in house; host or cells: Escherichia coli BL21 (DE3)", "T2 sequence (P63208 whole entry, the tested form may be a part)": "as the sequence (P63208 whole entry F139A) above, with A139F counted along it", "experiment": "SPRi assay", "assay_type": "binding", "description": "Freshly deposited gold coated standard SPRi chips/slides (Plexera, LLC) were cleaned, and compound(s) at 10 mM concentration in 100% DMSO were spotted on the chips using a micropipette. After this, the slides were left for complete evaporation of DMSO (under vacuum) at room temperature for 2 hrs. After printing, the slides were exposed to UV irradiation 2.4 J/cm^2 (365 nm) in a UV chamber (Amersham life science). The slides were subsequently washed with DMSO, ethanol, and finally with distilled water for 15 minutes (ultrasonically), respectively, to remove non-covalently bound compounds. After drying with nitrogen, the slides were assembled with flow cell and then mounted on SPRi instrument for measurement, or stored at 4°C to be used for later experiments.\nAll the experiments were carried out using the PlexArray® HT system (Plexera, LLC), which is based on surface plasmon resonance imaging. Oval regions of interests (ROIs) were set as 9 pixels × 7 pixels area in imaging area. ROIs of vehicle (DMSO) were used as controls for measurement of specific signals. All samples were injected with an association and dissociation flow rate of 3 μL s^−1 and at 25°C. A 1:3 mixture of glycine. HCL (pH 4.2) and 0.5% (v/v) SDS, respectively, was used to regenerate the surface and remove bound proteins from the small molecules enabling the sensor chip to be reused for additional analyte injections. […]"}}}
{"smiles": "Nc1ccc(-c2nc3ccccc3c3[nH]c4ccccc4c23)cc1", "note": "[Z0933M]", "values": [{"measurement": "cell cycle effect", "setting": "[1]", "result": "complete G2/M arrest"}, {"measurement": "binding by LC-MS/MS", "setting": "[2]", "result": "markedly reduced"}, {"measurement": "Kd", "setting": "[3]; SPRi, Skp1^WT", "result": "54.7 ± 6.68", "unit": "nM"}, {"measurement": "Kd", "setting": "[3]; as given in the summary", "result": "~54", "unit": "nM"}]}
